Experimental data as given in US11746103B2, “ALK-5 inhibitors and uses thereof” (Sumitomo Pharma Oncology, Inc., priority 2020, dated 2023).

Legend:
[1] = target: ALK-5 (Homo sapiens (Human), UniProt P36897); test: LanthaScreen Eu Kinase Binding Assay, ALK-5; settings: for IC50: read-out: Kinase Inhibition: ALK5 IC50
Experimental: Activity determinations and selectivity were conducted by Thermo Fisher Scientific “SelectScreen™ Biochemical Kinase Profiling Service” using their “LanthaScreen™ Eu Kinase Binding Assay Screening” (www.thermofisher.com/selectscreen). Binding of an Alexa Fluor™ conjugate or “tracer” to a kinase is detected by addition of a Eu-labeled anti-tag antibody. Binding of the tracer and antibody to a kinase results in a high degree of FRET, whereas displacement of the tracer with a kinase inhibitor results in a loss of FRET. This assay is carried out by mixing the compound tested with the reagents and reading, no development step is required. Life Technologies' Kinase Tracers are based on ATP-competitive kinase inhibitors, making them suitable for detection of any compounds that bind to the ATP site. Inhibitors that bind the ATP site include both Type I kinase inhibitors, which bind solely to the ATP site, and Type II inhibitors (e.g., Gleevec®/Imatinib, Sorafenib, BIRB-796), which bind to both the ATP site and a second site often referred to as the allosteric site. […] For 10 point titrations, 3-fold serial dilutions are conducted from the starting concentration (see Table 2 below). [table] All Kinase/Antibody Mixtures are diluted to a 2× working concentration in the specified kinase buffer. The 4× AlexaFluor labeled Tracer is prepared in Kinase Buffer. Bar-coded, low volume, white 384-well plate (Greiner Cat. #784207) […] 2. 3.84 μL—Kinase Buffer […] 4. 4.0 μL—4× Tracer 5. 30-second plate shake 6. 60-minute incubation at room temperature 7. […] The LanthaScreen Eu Kinase Binding Assay data is analyzed using the equations in Table 3 for each set of data points. [table] Data generated were plotted using the graphing software XLfit from IDBS. The dose response curve is curve fit to model number 205.

[2] = tested on: TGF-beta induced SMAD signaling; test: RDSR (RD SMAD reporter) Cellular Reporter Assay; assay type: cell-based; settings: Homo sapiens; 200 pg/ml rhTGF-beta1, 24 h; read-out: RD-SMAD reporter activity
From the text: TGF-β signaling is triggered when the activated TGF-β homodimer binds to the TGF-β receptor 2, which in turn leads to the recruitment and phosphorylation of TGF-β receptor 1 (ALK5). Activated TGF-β receptor 1 phosphorylates the signal transduction molecules SMAD2 and SMAD3. These bind to common mediator SMAD4 and translocate to the nucleus where they bind to short conserved DNA sequences called the SMAD binding element and induce the transcription of various target genes. […] Certain example compounds were also or alternatively assayed using the RDSR Cellular Reporter Assay. Overview and Design: The RD SMAD reporter (RDSR) cell line was generated by stabily integrating the SMAD cellular reporter plasmid (Promega, pGL4.48[luc2P/SBE/Hygro]) into the human rhabdomyosarcoma cell line RD (ATCC, CCL-136). Once SMAD signaling is triggered, with, for example, the addition of TGF-β 1, receptor activated SMADs bind the SMAD binding elements (SBEs) leading to the expression of intracellular luciferase. To determine the potency of compounds at inhibiting TGF-beta induced SMAD signaling, the RDSR reporter system was utilized. The rhabdomyosarcoma line RD (ATCC, CCL-136) was transfected with a SMAD reporter vector (Promega, E3671) and a polyclonal stable cell line was selected using hygromycin B. The transfected vector contains three copies of a SMAD-binding element (SBE) that drive transcription of the luciferase reporter gene luc2P (Photinus pyralis). luc2P is a synthetically-derived luciferase sequence with humanized codon optimization that is designed for high expression and reduced anomalous transcription. The luc2P gene contains hPEST, a protein destabilization sequence, which allows luc2P protein levels to respond more quickly than those of luc2 to induction of transcription. The intracellular luciferase is quantified by the addition of equal volume (100 μl) of ONE-GLO substrate (Promega, E6120) and read within ten minutes on the Envision plate reader. The stable RDSR cell line was tested by evaluating the response to human TGF-β1 (R&D Systems, 7754-BH-005) as well as human myostatin (R&D Systems, 788-G8-010/CF) in a concentration dependent manner after twenty-four hours of stimulation. […] For compound evaluation, the tool drugs Galunisertib and Vactosertib were included as positive controls. The tool drugs and the compounds of the invention being tested were all incubated with cells for one hour at 37° C. before stimulation with 200 pg/ml rhTGF-beta1 for twenty-four hours. The activity of the reporter was determined with the addition of ONE-GLO (Promega) substrate and luminescence counts collected on the Envision plate reader (Perkin Elmer). […] The activity of compounds of the invention as determined using this method are reported in the third column of Table 1, below.

Chain of ALK-5 (P36897 34-503): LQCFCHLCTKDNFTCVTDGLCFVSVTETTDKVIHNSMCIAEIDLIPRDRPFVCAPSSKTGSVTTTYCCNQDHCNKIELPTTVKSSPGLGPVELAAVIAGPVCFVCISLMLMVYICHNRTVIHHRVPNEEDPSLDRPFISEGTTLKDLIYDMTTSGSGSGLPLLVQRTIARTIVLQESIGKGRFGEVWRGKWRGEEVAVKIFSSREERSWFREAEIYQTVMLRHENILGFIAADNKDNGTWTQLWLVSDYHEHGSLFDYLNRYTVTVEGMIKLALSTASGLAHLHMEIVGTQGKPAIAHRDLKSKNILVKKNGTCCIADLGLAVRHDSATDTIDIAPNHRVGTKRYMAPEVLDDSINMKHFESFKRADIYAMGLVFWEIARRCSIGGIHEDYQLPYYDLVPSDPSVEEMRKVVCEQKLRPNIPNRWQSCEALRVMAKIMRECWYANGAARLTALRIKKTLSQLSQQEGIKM

| Kinase Selectivity: ALK2 IC50/ ALK5 IC50 [1] | IC50 [1] | IC50 [2] | Compound |
| --- | --- | --- | --- |
| (++) (10<ALK2/ALK5<100=[++]) | < 10 nM | < 100 nM | Cc1cccc2c(Nc3ccnc(Nc4ccc(CN5CCN(C)CC5)c(C(F)(F)F)c4)n3)cnnc12 [EX-28, N4-(8-methylcinnolin-4-yl)-N2-(4-((4-methylpiperazin-1-yl)methyl)-3-(trifluoromethyl)phenyl)pyrimidine-2,4-diamine] |
| (++) (10<ALK2/ALK5<100=[++]) | < 10 nM | < 100 nM | Cc1cccc2c(Nc3ccnc(Nc4ccc(Cl)cc4)n3)cnnc12 [EX-29, N2-(4-chlorophenyl)-N4-(8-methylcinnolin-4-yl)pyrimidine-2,4-diamine] |
| (++) (10<ALK2/ALK5<100=[++]) | 10 to 100 nM | 100 to 1000 nM | Cc1cccc2c(Nc3nc(Nc4ccc(N5CCN(C)CC5)cc4)ncc3F)cnnc12 [EX-32, 5-fluoro-N4-(8-methylcinnolin-4-yl)-N2-(4-(4-methylpiperazin-1-yl)phenyl)pyrimidine-2,4-diamine] |
| (++) (10<ALK2/ALK5<100=[++]) | < 10 nM | < 100 nM | Cc1cccc2c(Nc3ccnc(Nc4ccc(N5CCN(C)CC5)cc4)n3)cnnc12 [EX-33, N4-(8-methylcinnolin-4-yl)-N2-(4-(4-methylpiperazin-1-yl)phenyl)pyrimidine-2,4-diamine] |
| (++) (10<ALK2/ALK5<100=[++]) | < 10 nM | < 100 nM | Cc1cccc2c(Nc3ccnc(Nc4ccc(N5CCN(C)CC5)c(Cl)c4)n3)cnnc12 [EX-34, N2-(3-chloro-4-(4-methyl-piperazin-1-yl)-phenyl)-N4-(8-methylcinnolin-4-yl)pyrimidine-2,4-diamine] |
| (++) (10<ALK2/ALK5<100=[++]) | < 10 nM | < 100 nM | Cc1cccc2c(Nc3ccnc(Nc4ccc(N5CCN(CCO)CC5)cc4)n3)cnnc12 [EX-37, 2-(4-(4-((4-((8-methylcinnolin-4-yl)amino)pyrimidin-2-yl)amino)phenyl)piperazin-1-yl)ethan-1-ol] |
| (++) (10<ALK2/ALK5<100=[++]) | 10 to 100 nM | < 100 nM | Cc1cccc2c(Nc3ccnc(Nc4ccc(F)c(N5CCOCC5)c4)n3)cnnc12 [EX-38, N2-(4-fluoro-3-morpholinophenyl)-N4-(8-methylcinnolin-4-yl)pyrimidine-2,4-diamine] |
| (+) (≤10=[+]) | < 10 nM | 100 to 1000 nM | Cc1cccc2c(Nc3ccnc(Nc4cc(F)cc(CN5CCN(C)CC5)c4)n3)cnnc12 [EX-42, N2-(3-fluoro-5-((4-methylpiperazin-1-yl)methyl)phenyl)-N4-(8-methylcinnolin-4-yl)pyrimidine-2,4-diamine] |
| (+) (≤10=[+]) | < 10 nM | 100 to 1000 nM | Cc1cccc2c(Nc3ccnc(Nc4cc(F)cc(CC5CCN(C)CC5)c4)n3)cnnc12 [EX-43, N2-(3-fluoro-5-((1-methylpiperidin-4-yl)methyl)phenyl)-N4-(8-methylcinnolin-4-yl)pyrimidine-2,4-diamine] |
| (++) (10<ALK2/ALK5<100=[++]) | < 10 nM | < 100 nM | Cc1cccc2c(Nc3ccnc(Nc4cccc(CN5CCOCC5)c4)n3)cnnc12 [EX-47, N4-(8-methylcinnolin-4-yl)-N2-(3-(morpholinomethyl)phenyl)pyrimidine-2,4-diamine] |
| (++) (10<ALK2/ALK5<100=[++]) | < 10 nM | < 100 nM | Cc1cccc2c(Nc3ccnc(Nc4ccc(N5CCNCC5)cc4)n3)cnnc12 [EX-48, N4-(8-methylcinnolin-4-yl)-N2-(4-(piperazin-1-yl)phenyl)pyrimidine-2,4-diamine] |
| (++) (10<ALK2/ALK5<100=[++]) | < 10 nM | < 100 nM | CN1CCN(c2ccc(Nc3nccc(Nc4cnnc5c(Cl)cccc45)n3)cc2)CC1 [EX-49, N4-(8-chlorocinnolin-4-yl)-N2-(4-(4-methylpiperazin-1-yl)phenyl)pyrimidine-2,4-diamine] |

More lines, now with the values behind:

| Compound | Kinase Selectivity: ALK2 IC50/ ALK5 IC50 [1] | IC50 [1] | IC50 [2] |
| --- | --- | --- | --- |
| Cc1cccc2c(Nc3ccnc(Nc4cccc(CN5CCNCC5)c4)n3)cnnc12 [EX-31, N4-(8-methylcinnolin-4-yl)-N2-(3-(piperazin-1-ylmethyl)phenyl)pyrimidine-2,4-diamine] | (+) (≤10=[+]) | < 10 nM | < 100 nM |
| Cc1cccc2c(Nc3ccnc(Nc4cccc(S(N)(=O)=O)c4)n3)cnnc12 [EX-35, 3-((4-((8-methylcinnolin-4-yl)amino)-pyrimidin-2-yl)amino)benzenesulfonamide] | (+) (≤10=[+]) | < 10 nM | < 100 nM |
| Cc1cccc2c(Nc3ccnc(Nc4cccc(C5CCNCC5)c4)n3)cnnc12 [EX-36, N4-(8-methylcinnolin-4-yl)-N2-(3-(piperidin-4-yl)phenyl)pyrimidine-2,4-diamine] | (+) (≤10=[+]) | < 10 nM | < 100 nM |
| Cc1cccc2c(Nc3ccnc(Nc4cc(N5CCOCC5)cc(C(F)(F)F)c4)n3)cnnc12 [EX-39, N4-(8-methylcinnolin-4-yl)-N2-(3-morpholino-5-(trifluoromethyl)phenyl)pyrimidine-2,4-diamine] | (+) (≤10=[+]) | < 10 nM | 100 to 1000 nM |
| Cc1c(F)ccc2c(Nc3ccnc(Nc4cccc(N5CCOCC5)c4)n3)cnnc12 [EX-40, N4-(7-fluoro-8-methylcinnolin-4-yl)-N2-(3-morpholinophenyl)pyrimidine-2,4-diamine] | (++) (10<ALK2/ALK5<100=[++]) | < 10 nM | < 100 nM |
| Cc1c(F)ccc2c(Nc3ccnc(Nc4ccc(N5CCOCC5)cc4)n3)cnnc12 [EX-41, N4-(7-fluoro-8-methylcinnolin-4-yl)-N2-(4-morpholinophenyl)pyrimidine-2,4-diamine] | (++) (10<ALK2/ALK5<100=[++]) | < 10 nM | < 100 nM |
| Cc1cccc2c(Nc3ccnc(Nc4cc(F)cc(N5CCOCC5)c4)n3)cnnc12 [EX-44, N2-(3-fluoro-5-morpholinophenyl)-N4-(8-methylcinnolin-4-yl)pyrimidine-2,4-diamine] | (++) (10<ALK2/ALK5<100=[++]) | < 10 nM | < 100 nM |
| Cc1cccc2c(Nc3ccnc(Nc4ccc(N5CC6CC5CN6C)cc4)n3)cnnc12 (stereo not drawn) [EX-45, N2-(4-(5-methyl-2,5-diazabicyclo[2.2.1]heptan-2-yl)phenyl)-N4-(8-methylcinnolin-4-yl)pyrimidine-2,4-diamine] | (++) (10<ALK2/ALK5<100=[++]) | < 10 nM | < 100 nM |
| Cc1cccc2c(Nc3ccnc(Nc4ccc(C5CCOCC5)cc4)n3)cnnc12 [EX-46, N4-(8-methylcinnolin-4-yl)-N2-(4-(tetrahydro-2H-pyran-4-yl)phenyl)pyrimidine-2,4-diamine] | (++) (10<ALK2/ALK5<100=[++]) | < 10 nM | < 100 nM |
